Data from patent US8440652B2, “MST1 kinase inhibitors and methods of their use” (Lexicon Pharmaceuticals, Inc., priority 2011, dated 2013).
Where two headings read alike, the source gives them in different places.

Target: T1, MST1 (Homo sapiens, UniProt Q13043)
T1 sequence (Q13043 1-487): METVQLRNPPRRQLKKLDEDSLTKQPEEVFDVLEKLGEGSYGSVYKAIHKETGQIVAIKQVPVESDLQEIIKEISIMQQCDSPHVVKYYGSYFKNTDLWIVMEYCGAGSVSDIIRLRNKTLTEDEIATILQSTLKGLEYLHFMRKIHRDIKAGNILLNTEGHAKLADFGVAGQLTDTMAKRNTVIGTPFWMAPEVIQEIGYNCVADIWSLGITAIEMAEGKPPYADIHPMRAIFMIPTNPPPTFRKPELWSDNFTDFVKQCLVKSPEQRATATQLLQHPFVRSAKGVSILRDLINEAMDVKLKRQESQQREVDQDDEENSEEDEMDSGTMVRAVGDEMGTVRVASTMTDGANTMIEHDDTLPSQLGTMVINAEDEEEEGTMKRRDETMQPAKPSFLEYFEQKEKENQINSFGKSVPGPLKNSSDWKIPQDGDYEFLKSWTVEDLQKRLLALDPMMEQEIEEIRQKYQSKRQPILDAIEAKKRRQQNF
Assay: In vitro measurement of MST1 inhibition (Z′-Lyte kinase assay)
Assay type: biochemical
Method: Assays were performed in low-volume 384-well black proxiplates (Perkin Elmer, PE-Blk-Proxi-6008269). Eight compounds were first diluted into LDV (Echo) plates using a Multiprobe, at a starting concentration of 1 mM compound in 100% DMSO. Using the ECHO, 75 nl compound was pinged into 384-well proxiplates. The starting concentration of compound in each assay plate is 7.5 uM, followed by 3-fold dilutions, to give quadruplicate ten-point concentration curves. A 3× solution of MST1 enzyme in kinase buffer (Invitrogen, PR4940C) was added to wells containing compound or DMSO controls, followed by a 10 minute preincubation step. Reactions were initiated by adding 5 μL of a mixture of ATP and Z′-Lyte S/T Pep 7 (Invitrogen, PV3180) and proceeded at RT for 1 hour. […] At the end of the kinase reaction, 10 ul of developing solution (Invitrogen, catalog #PR4876B; development buffer A diluted […] in development buffer B) was added to each well and incubated at RT for 1 hr. All wells were read on a Tecan at 400 nm excitation and 460 nm/530 nm emission. Plus and minus enzyme controls were used to calculate percent inhibition and IC50 curves were generated using Excel.

[1] = 50 μM ATP, read-out: IC50 (μM) 50 μM ATP
[2] = 1 μM ATP, read-out: IC50 (μM) 1 μM ATP

## NC(=O)c1ccc(-c2cc(-c3ccc(C(=O)c4ccccc4)cc3)cnc2N)cc1 [4-(2-amino-5-(4-benzoylphenyl)pyridin-3-yl)benzamide]
[1]
  IC50: < 0.15 µM

## CCOc1cc(-c2cc(-c3ccc(F)cc3)cnc2N)ccc1C(N)=O [4-(2-amino-5-(4-fluorophenyl)pyridin-3-yl)-2-ethoxybenzamide]
[1]
  IC50: < 0.15 µM

## CCCOc1ccc(-c2cnc(N)c(-c3ccc(C(N)=O)cc3)c2)cc1 [4-(2-amino-5-(4-propoxyphenyl)pyridin-3-yl)benzamide]
[1]
  IC50: < 0.15 µM

## NC(=O)c1ccc(-c2cc(-c3ccc(S(N)(=O)=O)cc3)cnc2N)cc1 [4-(2-amino-5-(4-sulfamoylphenyl)pyridin-3-yl)benzamide]
[1]
  IC50: < 0.15 µM

## CC(C)Oc1cc(-c2nc(-c3ccc(S(=O)(=O)N(C)C4CC4)cc3)cnc2N)ccc1C(N)=O [4-(3-amino-6-(4-(N-cyclopropyl-N-methylsulfamoyl)phenyl)pyrazin-2-yl)-2-isopropoxybenzamide]
[2]
  IC50: < 0.05 µM
[1]
  IC50: < 0.01 µM

## N#CC1(c2ccc(-c3cnc(N)c(-c4ccc5c(c4)CCNC5=O)n3)cc2)CCOCC1 [4-(4-(5-amino-6-(1-oxo-1,2,3,4-tetrahydroisoquinolin-6-yl)pyrazin-2-yl)phenyl)tetrahydro-2H-pyran-4-carbonitrile]
[2]
  IC50: < 0.05 µM
[1]
  IC50: < 0.01 µM

## N#CC1(c2ccc(-c3cnc(N)c(-c4ccc5c(c4)CCCNC5=O)n3)cc2)CCOCC1 [4-(4-(5-amino-6-(1-oxo-2,3,4,5-tetrahydro-1H-benzo[c]azepin-7-yl)pyrazin-2-yl)phenyl)tetrahydro-2H-pyran-4-carbonitrile]
[2]
  IC50: < 0.05 µM
[1]
  IC50: < 0.01 µM

## N#CC1(c2ccc(-c3cnc(N)c(-c4ccc5c(c4)C4(CC4)NC5=O)n3)cc2)CCOCC1 [4-(4-(5-amino-6-(3′-oxospiro[cyclopropane-1,1′-isoindolin]-6′-yl)pyrazin-2-yl)phenyl)tetrahydro-2H-pyran-4-carbonitrile]
[2]
  IC50: < 0.05 µM
[1]
  IC50: < 0.01 µM

## CC1(C)CNC(=O)c2ccc(-c3nc(-c4ccc(C5(C#N)CCOCC5)cc4)cnc3N)cc21 [4-(4-(5-amino-6-(4,4-dimethyl-1-oxo-1,2,3,4-tetrahydroisoquinolin-6-yl)pyrazin-2-yl)phenyl)tetrahydro-2H-pyran-4-carbonitrile]
[2]
  IC50: < 0.01 µM
[1]
  IC50: < 0.01 µM

## N#CC1(c2ccc(-c3cnc(N)c(-c4ccc5c(c4)NCCNC5=O)n3)cc2)CCOCC1 [4-(4-(5-amino-6-(5-oxo-2,3,4,5-tetrahydro-1H-benzo[e][1,4]diazepin-8-yl)pyrazin-2-yl)phenyl)tetrahydro-2H-pyran-4-carbonitrile]
[2]
  IC50: < 0.05 µM
[1]
  IC50: < 0.01 µM

## N#CC1(c2ccc(-c3cnc(N)c(-c4ccc5c(c4)C4(CC4)CNC5=O)c3)cc2)CCOCC1 [4-(4-(6-amino-5-(1′-oxo-2′,3′-dihydro-1′H-spiro[cyclopropane-1,4′-isoquinolin]-6′-yl)pyridin-3-yl)phenyl)tetrahydro-2H-pyran-4-carbonitrile]
[2]
  IC50: < 0.01 µM
[1]
  IC50: < 0.01 µM

## N#CC1(c2ccc(-c3cnc(N)c(-c4ccc5c(c4)C4(CC4)NC5=O)c3)cc2)CCOCC1 [4-(4-(6-amino-5-(3′-oxospiro[cyclopropane-1,1′-isoindolin]-6′-yl)pyridin-3-yl)phenyl)tetrahydro-2H-pyran-4-carbonitrile]
[2]
  IC50: < 0.05 µM
[1]
  IC50: < 0.01 µM

## CC1(C)CNC(=O)c2ccc(-c3cc(-c4ccc(C5(C#N)CCOCC5)cc4)cnc3N)cc21 [4-(4-(6-amino-5-(4,4-dimethyl-1-oxo-1,2,3,4-tetrahydroisoquinolin-6-yl)pyridin-3-yl)phenyl)tetrahydro-2H-pyran-4-carbonitrile]
[2]
  IC50: < 0.01 µM
[1]
  IC50: < 0.01 µM

## NC(=O)c1ccc(-c2cc(-c3ccc(-n4ccnc4)cc3)cnc2N)cc1 [4-(5-(4-(1H-imidazol-1-yl)phenyl)-2-aminopyridin-3-yl)benzamide]
[1]
  IC50: < 0.15 µM

## CC(=O)NS(=O)(=O)c1ccc(-c2cnc(N)c(-c3ccc(C(N)=O)cc3)c2)cc1 [4-(5-(4-(N-acetylsulfamoyl)phenyl)-2-aminopyridin-3-yl)benzamide]
[1]
  IC50: < 0.15 µM

## CCN(C)S(=O)(=O)c1ccc(-c2cnc(N)c(-c3ccc4c(O)nccc4c3)n2)cc1 [4-(5-amino-6-(1-hydroxyisoquinolin-6-yl)pyrazin-2-yl)-N-ethyl-N-methylbenzenesulfonamide]
[2]
  IC50: < 0.01 µM
[1]
  IC50: < 0.01 µM

## CCN(C)S(=O)(=O)c1ccc(-c2cnc(N)c(-c3ccc4c(c3)CCNC4=O)n2)cc1Cl [4-(5-amino-6-(1-oxo-1,2,3,4-tetrahydroisoquinolin-6-yl)pyrazin-2-yl)-2-chloro-N-ethyl-N-methylbenzenesulfonamide]
[2]
  IC50: < 0.01 µM
[1]
  IC50: < 0.01 µM

## CCCN(C)S(=O)(=O)c1ccc(-c2cnc(N)c(-c3ccc4c(c3)CCNC4=O)n2)cc1Cl [4-(5-amino-6-(1-oxo-1,2,3,4-tetrahydroisoquinolin-6-yl)pyrazin-2-yl)-2-chloro-N-methyl-N-propylbenzenesulfonamide]
[2]
  IC50: < 0.01 µM
[1]
  IC50: < 0.01 µM

## [2H]C([2H])([2H])N(C([2H])([2H])[2H])S(=O)(=O)c1ccc(-c2cnc(N)c(-c3ccc4c(c3)CCNC4=O)n2)cc1 [4-(5-amino-6-(1-oxo-1,2,3,4-tetrahydroisoquinolin-6-yl)pyrazin-2-yl)-N,N-di(trideuteromethyl)benzenesulfonamide]
[2]
  IC50: < 0.01 µM
[1]
  IC50: < 0.01 µM

## CN(CC(F)F)S(=O)(=O)c1ccc(-c2cnc(N)c(-c3ccc4c(c3)CCNC4=O)n2)cc1 [4-(5-amino-6-(1-oxo-1,2,3,4-tetrahydroisoquinolin-6-yl)pyrazin-2-yl)-N-(2,2-difluoroethyl)-N-methylbenzenesulfonamide]
[2]
  IC50: < 0.05 µM
[1]
  IC50: < 0.01 µM

## CCN(CC1CC1)S(=O)(=O)c1ccc(-c2cnc(N)c(-c3ccc4c(c3)CCNC4=O)n2)cc1 [4-(5-amino-6-(1-oxo-1,2,3,4-tetrahydroisoquinolin-6-yl)pyrazin-2-yl)-N-(cyclopropylmethyl)-N-ethylbenzenesulfonamide]
[2]
  IC50: < 0.01 µM
[1]
  IC50: < 0.01 µM

## CN(C1CCC1)S(=O)(=O)c1ccc(-c2cnc(N)c(-c3ccc4c(c3)CCNC4=O)n2)cc1 [4-(5-amino-6-(1-oxo-1,2,3,4-tetrahydroisoquinolin-6-yl)pyrazin-2-yl)-N-cyclobutyl-N-methylbenzenesulfonamide]
[2]
  IC50: < 0.01 µM
[1]
  IC50: < 0.01 µM

## CN(C1CC1)S(=O)(=O)c1ccc(-c2cnc(N)c(-c3ccc4c(c3)CCNC4=O)n2)cc1F [4-(5-amino-6-(1-oxo-1,2,3,4-tetrahydroisoquinolin-6-yl)pyrazin-2-yl)-N-cyclopropyl-2-fluoro-N-methylbenzenesulfonamide]
[2]
  IC50: < 0.01 µM
[1]
  IC50: < 0.01 µM

## CCN(C1CC1)S(=O)(=O)c1ccc(-c2cnc(N)c(-c3ccc4c(c3)CCNC4=O)n2)cc1 [4-(5-amino-6-(1-oxo-1,2,3,4-tetrahydroisoquinolin-6-yl)pyrazin-2-yl)-N-cyclopropyl-N-ethylbenzenesulfonamide]
[2]
  IC50: < 0.05 µM
[1]
  IC50: < 0.01 µM

## [2H]C([2H])([2H])N(C1CC1)S(=O)(=O)c1ccc(-c2cnc(N)c(-c3ccc4c(c3)CCNC4=O)n2)cc1 [4-(5-amino-6-(1-oxo-1,2,3,4-tetrahydroisoquinolin-6-yl)pyrazin-2-yl)-N-cyclopropyl-N-trideuteromethylbenzenesulfonamide]
[2]
  IC50: < 0.01 µM
[1]
  IC50: < 0.01 µM

## Nc1ncc(-c2ccc(S(=O)(=O)NC3CC3)cc2)nc1-c1ccc2c(c1)CCNC2=O [4-(5-amino-6-(1-oxo-1,2,3,4-tetrahydroisoquinolin-6-yl)pyrazin-2-yl)-N-cyclopropylbenzenesulfonamide]
[2]
  IC50: < 0.01 µM
[1]
  IC50: < 0.01 µM

## CCN(C)S(=O)(=O)c1ccc(-c2cnc(N)c(-c3ccc4c(c3)CCNC4=O)n2)cc1C [4-(5-amino-6-(1-oxo-1,2,3,4-tetrahydroisoquinolin-6-yl)pyrazin-2-yl)-N-ethyl-N,2-dimethylbenzenesulfonamide]
[2]
  IC50: < 0.01 µM
[1]
  IC50: < 0.01 µM

## CCN(C)S(=O)(=O)c1ccc(-c2cnc(N)c(-c3ccc4c(c3)CCNC4=O)n2)cc1 [4-(5-amino-6-(1-oxo-1,2,3,4-tetrahydroisoquinolin-6-yl)pyrazin-2-yl)-N-ethyl-N-methylbenzenesulfonamide]
[2]
  IC50: < 0.01 µM
[1]
  IC50: < 0.01 µM

## CCNS(=O)(=O)c1ccc(-c2cnc(N)c(-c3ccc4c(c3)CCNC4=O)n2)cc1 [4-(5-amino-6-(1-oxo-1,2,3,4-tetrahydroisoquinolin-6-yl)pyrazin-2-yl)-N-ethylbenzenesulfonamide]
[2]
  IC50: < 0.01 µM
[1]
  IC50: < 0.01 µM
